ChEMBL document CHEMBL3132769, “Fragment growing to retain or alter the selectivity of anchored kinase hinge-binding fragments” (Medchemcomm, 2014)

How the values were obtained:
[1] = molecular target: T1, Serine/threonine-protein kinase D1 (Homo sapiens) (UniProt Q15139); test: Inhibition of human full length PKD1 expressed in baculovirus assessed as substrate phosphorylation using fluorescence-labelled peptides as substrate at 95 uM after 90 mins by microfluidic peptide phosphorylation assay
T1 sequence (whole entry): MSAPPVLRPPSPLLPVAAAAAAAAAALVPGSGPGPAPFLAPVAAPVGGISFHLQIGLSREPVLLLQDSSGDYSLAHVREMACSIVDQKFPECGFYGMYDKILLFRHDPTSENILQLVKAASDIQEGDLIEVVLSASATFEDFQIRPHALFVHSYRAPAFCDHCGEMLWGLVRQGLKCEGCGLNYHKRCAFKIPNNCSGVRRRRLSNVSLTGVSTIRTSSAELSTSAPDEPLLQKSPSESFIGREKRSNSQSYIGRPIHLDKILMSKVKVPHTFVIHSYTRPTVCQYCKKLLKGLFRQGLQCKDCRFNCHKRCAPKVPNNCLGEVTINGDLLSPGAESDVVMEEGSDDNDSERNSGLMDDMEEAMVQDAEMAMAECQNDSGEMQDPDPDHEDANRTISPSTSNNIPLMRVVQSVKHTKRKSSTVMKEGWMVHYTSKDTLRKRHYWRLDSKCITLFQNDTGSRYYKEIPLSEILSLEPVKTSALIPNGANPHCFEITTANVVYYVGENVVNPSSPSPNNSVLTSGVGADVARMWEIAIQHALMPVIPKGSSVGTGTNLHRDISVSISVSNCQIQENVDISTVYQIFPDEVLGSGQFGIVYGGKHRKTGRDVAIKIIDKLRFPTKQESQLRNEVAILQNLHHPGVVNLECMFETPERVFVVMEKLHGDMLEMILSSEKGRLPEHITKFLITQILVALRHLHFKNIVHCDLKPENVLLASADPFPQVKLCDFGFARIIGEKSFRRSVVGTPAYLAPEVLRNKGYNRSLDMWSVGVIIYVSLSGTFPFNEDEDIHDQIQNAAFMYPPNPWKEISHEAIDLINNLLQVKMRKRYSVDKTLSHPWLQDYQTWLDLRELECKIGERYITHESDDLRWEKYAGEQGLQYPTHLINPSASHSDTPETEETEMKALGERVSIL

[2] = molecular target: Tyrosine-protein kinase Fer (Homo sapiens) (UniProt P16591); test: Inhibition of human FER catalytic domain expressed in baculovirus assessed as substrate phosphorylation using fluorescence-labelled peptides as substrate at 0.2 uM after 90 mins by microfluidic peptide phosphorylation assay
[3] = molecular target: T2, Serine/threonine-protein kinase DCLK2 (Homo sapiens) (UniProt Q8N568); test: Inhibition of human full length DCAMKL2 expressed in baculovirus assessed as substrate phosphorylation using fluorescence-labelled peptides as substrate at 8 uM after 90 mins by microfluidic peptide phosphorylation assay
T2 sequence (whole entry): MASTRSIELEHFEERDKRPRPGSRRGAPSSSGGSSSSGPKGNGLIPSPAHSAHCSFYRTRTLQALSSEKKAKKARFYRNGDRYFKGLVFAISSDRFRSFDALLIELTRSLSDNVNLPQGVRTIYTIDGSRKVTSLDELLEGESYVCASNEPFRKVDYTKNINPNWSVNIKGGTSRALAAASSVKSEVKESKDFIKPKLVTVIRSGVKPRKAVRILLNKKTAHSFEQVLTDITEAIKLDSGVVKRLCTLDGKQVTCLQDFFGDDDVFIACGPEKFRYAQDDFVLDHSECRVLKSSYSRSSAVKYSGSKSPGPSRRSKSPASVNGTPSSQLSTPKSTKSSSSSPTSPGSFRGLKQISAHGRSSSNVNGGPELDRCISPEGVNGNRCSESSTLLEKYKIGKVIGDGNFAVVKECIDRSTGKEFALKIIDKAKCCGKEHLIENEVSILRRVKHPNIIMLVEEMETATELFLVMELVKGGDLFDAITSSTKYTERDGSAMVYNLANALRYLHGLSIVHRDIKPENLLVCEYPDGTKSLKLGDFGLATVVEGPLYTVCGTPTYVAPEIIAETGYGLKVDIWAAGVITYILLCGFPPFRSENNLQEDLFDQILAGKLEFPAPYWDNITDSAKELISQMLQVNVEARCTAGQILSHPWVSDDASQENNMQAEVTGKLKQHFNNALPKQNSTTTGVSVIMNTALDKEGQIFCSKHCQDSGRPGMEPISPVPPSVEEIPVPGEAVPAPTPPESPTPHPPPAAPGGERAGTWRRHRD

[4] = molecular target: Fibroblast growth factor receptor 3 (Homo sapiens) (UniProt P22607); test: Inhibition of human FGFR3 catalytic domain expressed in baculovirus assessed as substrate phosphorylation using fluorescence-labelled peptides as substrate at 8 uM after 90 mins by microfluidic peptide phosphorylation assay
[5] = molecular target: T3, cGMP-dependent protein kinase 1 (Homo sapiens) (UniProt Q13976); test: Inhibition of human full length PKG-1beta expressed in baculovirus assessed as substrate phosphorylation using fluorescence-labelled peptides as substrate at 2 uM after 90 mins by microfluidic peptide phosphorylation assay
T3 sequence (whole entry): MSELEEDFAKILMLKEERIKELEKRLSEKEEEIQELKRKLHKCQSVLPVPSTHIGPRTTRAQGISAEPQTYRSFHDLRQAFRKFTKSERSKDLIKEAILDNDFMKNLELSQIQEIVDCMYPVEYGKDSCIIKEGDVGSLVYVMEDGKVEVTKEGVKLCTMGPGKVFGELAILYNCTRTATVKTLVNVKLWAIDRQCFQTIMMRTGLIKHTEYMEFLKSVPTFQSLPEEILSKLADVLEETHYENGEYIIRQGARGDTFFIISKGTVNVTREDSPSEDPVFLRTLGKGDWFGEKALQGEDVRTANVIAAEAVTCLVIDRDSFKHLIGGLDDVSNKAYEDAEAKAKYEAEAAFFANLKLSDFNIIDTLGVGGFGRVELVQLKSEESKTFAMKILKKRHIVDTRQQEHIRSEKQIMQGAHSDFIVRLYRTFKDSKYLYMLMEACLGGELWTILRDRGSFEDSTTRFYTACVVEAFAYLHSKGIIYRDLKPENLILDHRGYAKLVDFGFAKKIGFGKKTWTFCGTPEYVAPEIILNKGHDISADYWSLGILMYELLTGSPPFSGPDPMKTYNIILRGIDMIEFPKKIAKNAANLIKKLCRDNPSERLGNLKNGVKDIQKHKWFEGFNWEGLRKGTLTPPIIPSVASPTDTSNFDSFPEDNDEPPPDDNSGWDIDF

[6] = molecular target: Proto-oncogene tyrosine-protein kinase Src (Homo sapiens) (UniProt P12931); test: Inhibition of human full length SRC expressed in baculovirus assessed as substrate phosphorylation using fluorescence-labelled peptides as substrate at […] after 90 mins by microfluidic peptide phosphorylation assay
[7] = molecular target: T1, Serine/threonine-protein kinase D1 (Homo sapiens); test: Inhibition of human full length PKD1 expressed in baculovirus assessed as substrate phosphorylation using fluorescence-labelled peptides as substrate at 70 uM after 90 mins by microfluidic peptide phosphorylation assay
[8] = test system: Tyrosine-protein kinase ABL1 (Homo sapiens), P00519 [T315I]; test: Inhibition of human truncated ABL T315I mutant expressed in baculovirus assessed as substrate phosphorylation using fluorescence-labelled peptides as substrate at 70 uM after 90 mins by microfluidic peptide phosphorylation assay

Chain of Tyrosine-protein kinase Fer (Homo sapiens) (P16591 whole entry, looked up, the tested form may be a part): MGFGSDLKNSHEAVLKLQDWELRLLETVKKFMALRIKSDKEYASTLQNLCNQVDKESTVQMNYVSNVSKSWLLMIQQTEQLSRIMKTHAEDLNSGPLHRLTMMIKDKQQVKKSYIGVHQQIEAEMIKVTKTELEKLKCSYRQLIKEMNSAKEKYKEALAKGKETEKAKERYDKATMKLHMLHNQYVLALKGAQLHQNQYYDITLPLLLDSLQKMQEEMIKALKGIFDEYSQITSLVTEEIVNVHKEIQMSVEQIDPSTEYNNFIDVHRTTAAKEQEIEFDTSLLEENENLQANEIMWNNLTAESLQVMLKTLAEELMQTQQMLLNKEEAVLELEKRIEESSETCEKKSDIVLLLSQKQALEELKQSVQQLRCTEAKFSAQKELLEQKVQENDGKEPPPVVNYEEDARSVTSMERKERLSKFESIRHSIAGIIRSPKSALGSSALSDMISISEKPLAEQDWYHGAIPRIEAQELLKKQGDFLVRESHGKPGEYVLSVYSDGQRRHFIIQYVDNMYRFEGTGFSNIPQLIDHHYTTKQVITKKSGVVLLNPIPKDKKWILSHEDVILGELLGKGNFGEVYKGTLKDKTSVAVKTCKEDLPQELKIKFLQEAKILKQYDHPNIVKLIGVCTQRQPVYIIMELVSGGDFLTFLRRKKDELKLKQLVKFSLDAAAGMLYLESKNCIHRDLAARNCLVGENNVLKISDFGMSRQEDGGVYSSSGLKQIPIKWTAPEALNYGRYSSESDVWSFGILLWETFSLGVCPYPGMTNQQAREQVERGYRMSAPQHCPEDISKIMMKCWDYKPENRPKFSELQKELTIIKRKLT
Chain of Proto-oncogene tyrosine-protein kinase Src (Homo sapiens) (P12931 2-536 limits assumed): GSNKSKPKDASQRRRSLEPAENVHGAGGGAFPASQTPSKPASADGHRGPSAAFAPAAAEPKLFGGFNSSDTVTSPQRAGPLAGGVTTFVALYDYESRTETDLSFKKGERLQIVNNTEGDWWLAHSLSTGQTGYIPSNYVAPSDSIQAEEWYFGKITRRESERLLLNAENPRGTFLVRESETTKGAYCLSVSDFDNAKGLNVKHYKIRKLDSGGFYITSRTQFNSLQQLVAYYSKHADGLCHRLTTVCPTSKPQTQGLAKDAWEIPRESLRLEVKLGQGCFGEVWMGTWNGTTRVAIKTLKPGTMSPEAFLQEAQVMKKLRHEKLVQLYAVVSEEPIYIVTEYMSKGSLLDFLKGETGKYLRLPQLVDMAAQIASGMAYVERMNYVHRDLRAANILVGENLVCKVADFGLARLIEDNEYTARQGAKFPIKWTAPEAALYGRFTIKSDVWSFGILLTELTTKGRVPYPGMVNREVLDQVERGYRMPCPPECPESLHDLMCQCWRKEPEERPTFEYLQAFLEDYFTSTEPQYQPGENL
Chain of Fibroblast growth factor receptor 3 (Homo sapiens) (P22607 23-806 limits assumed): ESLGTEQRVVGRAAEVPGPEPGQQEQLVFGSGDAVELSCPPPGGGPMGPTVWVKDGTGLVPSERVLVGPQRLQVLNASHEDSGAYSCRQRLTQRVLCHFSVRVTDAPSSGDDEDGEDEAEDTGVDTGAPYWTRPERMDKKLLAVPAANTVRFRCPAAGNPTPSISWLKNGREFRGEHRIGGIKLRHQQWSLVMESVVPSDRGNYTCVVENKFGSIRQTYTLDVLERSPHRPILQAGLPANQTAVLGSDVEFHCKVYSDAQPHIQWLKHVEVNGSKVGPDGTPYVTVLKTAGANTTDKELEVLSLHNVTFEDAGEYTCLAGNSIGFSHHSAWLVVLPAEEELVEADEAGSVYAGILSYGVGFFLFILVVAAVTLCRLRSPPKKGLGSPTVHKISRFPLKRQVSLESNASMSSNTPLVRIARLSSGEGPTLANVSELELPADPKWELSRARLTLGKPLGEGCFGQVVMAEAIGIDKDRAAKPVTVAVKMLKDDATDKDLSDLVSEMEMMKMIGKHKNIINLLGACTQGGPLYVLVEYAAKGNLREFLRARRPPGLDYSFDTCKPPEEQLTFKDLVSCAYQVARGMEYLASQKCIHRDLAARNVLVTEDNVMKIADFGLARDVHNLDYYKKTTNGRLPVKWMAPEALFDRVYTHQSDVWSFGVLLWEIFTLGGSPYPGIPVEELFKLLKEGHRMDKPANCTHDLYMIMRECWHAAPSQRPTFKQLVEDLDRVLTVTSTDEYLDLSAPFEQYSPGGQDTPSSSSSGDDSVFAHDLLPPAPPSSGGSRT

SMILES: NCCc1ccc(-c2ncnc3[nH]cnc23)cc1
- inhibition [1]: 44%

SMILES: Clc1ccc(C2(c3ccc(-c4ncnc5[nH]cnc45)cc3)CCNCC2)cc1
- inhibition [2]: 2.5%

SMILES: NCC1CCN(c2ncnc3[nH]ccc23)CC1
- inhibition [3]: 21%
- inhibition [4]: 0.5%

SMILES: NC1CCN(c2ncnc3[nH]ccc23)CC1
- inhibition [5]: 8.5%

SMILES: COC(=O)c1cnc(Nc2cnc(C#N)cn2)cc1NCC1CCNCC1
- inhibition [6]: 7.5%

SMILES: CNCc1ccc(-c2ncnc3[nH]cnc23)cc1
- inhibition [7]: 54.5%
- inhibition [8]: 22%
